Consider eight molecules from patent US9265816B2, “Immunogenic WT-1 peptides and methods of use thereof” (priority 2006, dated 2016).

Residues, ends and D or L forms follow the SMILES beside them.

In data set [1] the test system is 697 (WT1+ leukemia cell line). It is filed as cell-based, human. On the procedure:
FIG. 9, left panel. […] CD8^+ T cells were incubated with radiolabeled target cells (pulsed or unpulsed 697 (A0201^+, WT1^+) or SKLY16 (A0201+, WT1-) at 3 different E:T ratios: Grey bars 100:1; Black bars 30:1; White bars 10:1. Y axis: percentage of cytotoxicity. X axis: target cell conditions. *-p<0.05 compared to SKLY16 controls at the same E:T ratio. Right panel: CD8+ T cells isolated as described for the left panel were incubated with radiolabeled JMN (solid line A0201+ WT1+) or MeWo (dashed line A0201+, WT1-) target cells at 4 different E:T ratios: Y axis: percentage of cytotoxicity. X axis: E:T ratios. P was <0.001 compared to MeWo controls. The presence of specific CTL was measured in a standard 4 h-chromium release assay. Target cells were pulsed with 10 microgram (mcg)/ml of synthetic peptides overnight at 37° C. and labeled with 300 μCi of Na2^51CrO4 (NEN Life Science Products, Inc., Boston, Mass.). After extensive washing, target cells were incubated with T cells at an E:T ratio ranging from 100:1 to 10:1. […] Supernatant fluids were harvested and radioactivity was measured in a gamma counter. Percent specific lysis was determined from the following formula: 100×[(experimental release minus spontaneous release)/(maximum release minus spontaneous release)]. Maximum release was determined by lysis of radiolabeled targets in 2.5% Triton X-100.

Data set [2] relates to JMN (WT1+ mesothelioma cell line). It is filed as cell-based, human. On the procedure: (§1) FIG. 9, left panel. […] The presence of specific CTL was measured in a standard 4 h-chromium release assay. Target cells were pulsed with 10 microgram (mcg)/ml of synthetic peptides overnight at 37° C. and labeled with 300 μCi of Na2^51CrO4 (NEN Life Science Products, Inc., Boston, Mass.). After extensive washing, target cells were incubated with T cells at an E:T ratio ranging from 100:1 to 10:1. All conditions were performed in triplicate. Plates were incubated for 4 hours at 37° C. in 5% CO2. Supernatant fluids were harvested and radioactivity was measured in a gamma counter. Percent specific lysis was determined from the following formula: 100×[(experimental release minus spontaneous release)/(maximum release minus spontaneous release)]. Maximum release was determined by lysis of radiolabeled targets in 2.5% Triton X-100.

In data set [3] the test system is CD3+ T cells. Description: Cross-priming: T cells stimulated with DCs incubated with tumor lysates, IFN-gamma ELISPOT against peptide-pulsed DCs. It is filed as cell-based, human. As to conditions: for experiments in which lysate-stimulated T cells recognized the peptide: WT1 positive tumor lysates, 5 separate donors. How it is done: A CD3^+ in vitro stimulation was performed as described above. 2×10^6 immature DCs were incubated with total cellular lysate from 2×10^6 tumor cells that was previously prepared by 3 freeze/thaw cycles. Following an 18 hour incubation, maturation cytokines were added to the DCs as described above. […] These DCs were exposed to peptide again during the ELISPOT assay as described above.
Total tumor lysates were prepared from 3 different cell lines: 697 (WT1^+, HLA A0201^+), an e1a2 leukemia cell line; JMN (WT1^+, HLA A0201^+) a biphasic mesothelioma cell line, and as a control, MeWo (WT1^−, HLA A0201^+), a malignant melanoma cell line. DCs from healthy A0201^+ donors were incubated for 18 hours with the tumor lysates and used to stimulate autologous CD3^+ T cells. Following 3 stimulations, the T cells were tested for their reactivity to autologous DCs pulsed with the WT1 peptides. […] These experiments were repeated in 5 separate donors.

Data set [4] concerns CD3+ T cells. Description: IFN-gamma ELISPOT of peptide-stimulated T cells from healthy donors with different HLA-DRB1 types. It is filed as cell-based, human. As to conditions: for experiments with peptide specific T cell responses: 7 healthy donors, each a different HLA-DRB1 type, positive/total experiments; for peptide specific CD4 response, IFN-γ ELISPOT: donors with different HLA-DRB1 types, FIG. 5. How it is done:
PBMC were Ficoll-purified from blood and resuspended at 5×10^6/ml in Ex-Vivo-150® medium (BioWhittaker, Walkersville, Md.) containing 1% autologous plasma. After a 2-hour incubation at 37° C., the non-adherent fraction was harvested and washed repeatedly with PBS, then resuspended in media containing 1×10^3 IU/ml GM-CSF and 0.0032 IU/ml IL-4. On day 2 and 4, the same media was added as re-feed (i.e., ½ the volume of media, containing enough cytokines for the entire dish, was added). On day 5, 10 μg/ml of peptide was added.
On day 6, a maturation cocktail of cytokines was added, and cells were cultured for another 48 hours. The maturation cocktail consisted of: 4×10^2 IU/ml IL-1-beta, 0.0032 IU/ml IL-4, 1×10^3 IU/ml IL-6, 1×10^3 IU/ml GMCSF, […], and 1 μg/ml PGE2.
On day 7, DC were harvested and washed twice with RPMI, counted, aliquoted and resuspended at 1×10^6/ml in X-vivo 15® media (without serum). Peptides were added to a final concentration of 10 μg/ml, and incubated for 2 h, 37° C. and 5% CO2, gently re-suspending every 15 minutes, then washed twice in HBSS and re-suspended in RPMI+5% autologous plasma at an appropriate concentration depending on the number of effectors isolated in the next step.
In addition, on day 7, additional PBMC were used to generate additional DC and CD3^+ cells. DC were isolated from the adherent fraction and prepared as described above for the second stimulation of the effector cells on day 14. CD3^+ cells were isolated from the non-adherent fraction by negative selection and stimulated with the previously prepared DC by re-suspending the CD3^+ cells at a concentration of 2×10^6 cells/ml in RPMI+5% autologous plasma, and adding DC at an effector:DC ratio of 20:1 and 10 ng/ml IL-15. Cells were then plated in 2 ml and co-incubated at 37° C. and 5% CO2 for 1 week.
On day 14, the CD3^+ cells were stimulated a second time with the second batch of DC in the same manner, except that 1×10^6 cells/ml were mixed with DC at an effector:DC ratio of 50:1. On day 18, the same media was added as re-feed. On day 20, the DC from the previous generation were defrosted and incubated in maturation cytokines in X-vivo 15® media. On day 21, the ELISPOT assay was conducted.
Plates were pre-wet with 30 μl/well 70% alcohol, shaking the plates to ensure coverage of the entire surface area, washed 3 times with 150 μl/well sterile PBS, then incubated overnight at 4° C. with 10 μg/ml coating antibody (anti-INF clone) in PBS, 100 μl/well, wrapped in aluminum foil. Plates were then washed 2 times with 150 μl/well PBS and 1 time with RPMI/10% autologous plasma (AP), then blocked with 150 μl/well RPMI/5% AP for 2 hours at 37° C. PBMC were suspended in RPMI/5% AP at 1×10^6/ml. […]

In data set [5] the target is HLA-A0201 (Homo sapiens, UniProt P04439, D140Y/D185E/D98H/E176V/E277Q/G131W/G231S/I119V/I121R/I166T/I218V/L300P/L318F/N151K/N90K/P208A/P217A/Q86G/Q94H/R138H/R169H/T345S). In words: T2 assay for peptide binding and stabilization of HLA A0201 molecules. It is filed as cell-based. To be noted: Example 1. How it is done:
T2 cells (TAP^−, HLA-A0201^+) were incubated overnight at 27° C. at a concentration of 1×10^6 cells/ml in FCS-free RPMI medium supplemented with 5 μg/ml human β2m (Sigma, St Louis, Mo.) in the absence (negative control) or presence of either a positive reference tyrosinase peptide or test peptides at various final concentrations (50, 10, 1, and 0.1 micrograms (μg)/ml). Following a 4-hour incubation with 5 μg/ml brefeldin A (Sigma), T2 cells were labeled for 30 minutes at 4° C. with a saturating concentration of anti-HLA-A2.1 (BB7.2) mAb, then washed twice. Cells were then incubated for 30 minutes, 4° C. with a saturating concentration of FITC-conjugated goat IgG F(ab′)2 anti-mouse Ig (Caltag, San Francisco, Calif.), washed twice, fixed in PBS/1% paraformaldehyde and analyzed using a FACS Calibur® cytofluorometer (Becton Dickinson, Immunocytometry Systems, San Jose, Calif.).
The mean intensity of fluorescence (MIF) observed for each peptide concentration (after dividing by the MIF in the absence of peptide) was used as an indication of peptide binding and expressed as a “fluorescence index.” Stabilization assays were performed similarly. Following initial evaluation of peptide binding at time 0, cells were washed in RPMI complete medium to remove free peptides and incubated in the continuous presence of 0.5 μg/ml brefeldin-A for 2, 4, 6 or 8 hours.
The number of stable peptide-HLA-A2.1 complexes was estimated as described above by immunofluorescence. The half time of complexes is an estimate of the time required for a 50% reduction of the MIF value at time=0.

Data set [6] relates to MeWo (WT1- melanoma cell line). In words: Chromium 51 cytotoxicity assay. It is filed as cell-based, human. How it is done:
as §1

Where [7] appears, read: human T cells stimulated 2 times with the peptide.

`CSCC[C@H](NC(=O)[C@H](Cc1ccc(O)cc1)NC(=O)[C@H](C)NC(=O)[C@H](CCC(N)=O)NC(=O)CNC(=O)[C@@H](N)CO)C(=O)N[C@@H](Cc1ccccc1)C(=O)N1CCC[C@H]1C(=O)N[C@@H](CC(N)=O)C(=O)N[C@@H](C)C(=O)N1CCC[C@H]1C(=O)N[C@@H](Cc1ccc(O)cc1)C(=O)N[C@@H](CC(C)C)C(=O)N1CCC[C@H]1C(=O)N[C@@H](CO)C(=O)N[C@@H](CS)C(=O)N[C@@H](CC(C)C)C(=O)N[C@@H](CCC(=O)O)C(=O)N[C@@H](CO)C(=O)O` [Peptide 122A1] (H-SGQAYMFPNAPYLPSCLES-OH): in data set [1], the “A0201+ donors with similar cytotoxicity results” value is “¾” and the “cytotoxicity of stimulated CD8+ cells to 697” value is reported as “stimulated a sufficient number of CD8^+ cells to be cytotoxic to 697”. The “cytotoxicity of stimulated CD4+ cells” value in data set [2] was “no cytotoxicity”.
Consider “LVRHHNMHQRNMTKL (listed as Homo sapiens) [Peptide 427]”, for which the “experiments in which lysate-stimulated T cells recognized the peptide” value in data set [3] is given as “all experiments”.
On to “PGCNKRYFKLSHLQMHSRKHTG (listed as Homo sapiens) [Peptide 328]”, for which, in data set [4], the “experiments with peptide specific T cell responses” value was 11/15 and the “peptide specific CD4 response, IFN-γ ELISPOT” value is given as “stimulated a significant peptide specific CD4 response”. The “experiments in which lysate-stimulated T cells recognized the peptide” value in data set [3] is reported as “⅗”.
For the molecule “RSDELVRHHNMHQRNMTKL (listed as Homo sapiens) [Peptide 423]”, the “experiments with peptide specific T cell responses” value in data set [4] is on record as 3/14.
Take “TEYKLVVVGAPGVGKSALTIQ (listed as Homo sapiens) [RAS, reference compound]”: in data set [4], the “peptide specific CD4 response, IFN-γ ELISPOT” value was “did not produce IFN-γ over background levels”.
Consider “YLGEQQYSV (One or more amino acids changed compared to native peptide sequence) [WT1 B (analogue)]”, for which, in data set [5], the “stability of binding to HLA-A0201” value is “stable binding”.
Same read-out and setting: the entry for “YLLPAVPSL (One or more amino acids changed compared to native peptide sequence) [WT1 C1 (analogue)]” is “stable binding”.
Consider “YMFPNAPYL (One or more amino acids changed compared to native peptide sequence) [WT1 A1 (analogue)]”, for which the “stability of binding to HLA-A0201” value in data set [5] is “stable binding”. Further, in data set [3] (697 tumor lysate), the “recognition by T cells stimulated with DCs pulsed with 697 tumor lysate” value is listed as “recognized”. Besides, the “recognition of JMN cells by stimulated CD3+ T cells” value in data set [2] (FIG. 9 right panel) is listed as “recognized JMN cells”. For the same molecule, the “lysis of JMN” value in data set [2] (setting [7]) is listed as 44.8%. In addition, the “recognition of MeWo cells by stimulated CD3+ T cells” value in data set [6] (MeWo alone or pulsed with WT1 122A1 peptide) was “not negative control MeWo cells”. In data set [6] (setting [7]), the “lysis of MeWo” value was found to be 22.2%.
